ChEMBL document CHEMBL3525951, “Reevaluation of the microsomal metabolism of montelukast: major contribution by CYP2C8 at clinically relevant concentrations” (Drug Metab Dispos, 2011)

T1: Cytochrome P450 2C8 (Homo sapiens, UniProt P10632)
T1 sequence (P10632 whole entry): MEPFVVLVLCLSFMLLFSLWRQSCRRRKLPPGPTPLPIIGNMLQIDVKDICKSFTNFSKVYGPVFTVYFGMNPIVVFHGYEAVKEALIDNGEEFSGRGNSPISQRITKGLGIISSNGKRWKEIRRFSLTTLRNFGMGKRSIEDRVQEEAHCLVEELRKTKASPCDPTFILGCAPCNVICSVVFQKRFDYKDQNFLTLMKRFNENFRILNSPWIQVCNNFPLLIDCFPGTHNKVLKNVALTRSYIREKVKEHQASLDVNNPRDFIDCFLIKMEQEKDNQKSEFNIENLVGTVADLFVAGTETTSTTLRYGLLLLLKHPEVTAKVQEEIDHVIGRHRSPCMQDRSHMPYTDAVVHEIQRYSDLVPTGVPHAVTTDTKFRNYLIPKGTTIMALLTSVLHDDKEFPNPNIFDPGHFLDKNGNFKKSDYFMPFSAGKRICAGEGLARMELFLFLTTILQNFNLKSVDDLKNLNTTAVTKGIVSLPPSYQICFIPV

T2: Cytochrome P450 1A2 (Homo sapiens, UniProt P05177)
T2 sequence (P05177 whole entry): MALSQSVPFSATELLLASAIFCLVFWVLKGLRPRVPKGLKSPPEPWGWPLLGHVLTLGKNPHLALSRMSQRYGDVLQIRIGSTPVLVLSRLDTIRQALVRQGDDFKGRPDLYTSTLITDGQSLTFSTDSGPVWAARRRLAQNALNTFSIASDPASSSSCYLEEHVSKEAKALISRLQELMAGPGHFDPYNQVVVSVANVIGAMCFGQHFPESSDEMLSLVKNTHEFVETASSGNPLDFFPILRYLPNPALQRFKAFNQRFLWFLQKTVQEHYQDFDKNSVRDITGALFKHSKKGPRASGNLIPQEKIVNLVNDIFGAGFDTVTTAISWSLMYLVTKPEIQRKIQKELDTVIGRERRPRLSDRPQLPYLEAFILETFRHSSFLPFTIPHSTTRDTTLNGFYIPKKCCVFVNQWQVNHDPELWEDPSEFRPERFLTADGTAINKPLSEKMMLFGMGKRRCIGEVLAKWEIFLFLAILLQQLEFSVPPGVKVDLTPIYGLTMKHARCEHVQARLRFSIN

T3: Cytochrome P450 2A6 (Homo sapiens, UniProt P11509)
T3 sequence (P11509 whole entry): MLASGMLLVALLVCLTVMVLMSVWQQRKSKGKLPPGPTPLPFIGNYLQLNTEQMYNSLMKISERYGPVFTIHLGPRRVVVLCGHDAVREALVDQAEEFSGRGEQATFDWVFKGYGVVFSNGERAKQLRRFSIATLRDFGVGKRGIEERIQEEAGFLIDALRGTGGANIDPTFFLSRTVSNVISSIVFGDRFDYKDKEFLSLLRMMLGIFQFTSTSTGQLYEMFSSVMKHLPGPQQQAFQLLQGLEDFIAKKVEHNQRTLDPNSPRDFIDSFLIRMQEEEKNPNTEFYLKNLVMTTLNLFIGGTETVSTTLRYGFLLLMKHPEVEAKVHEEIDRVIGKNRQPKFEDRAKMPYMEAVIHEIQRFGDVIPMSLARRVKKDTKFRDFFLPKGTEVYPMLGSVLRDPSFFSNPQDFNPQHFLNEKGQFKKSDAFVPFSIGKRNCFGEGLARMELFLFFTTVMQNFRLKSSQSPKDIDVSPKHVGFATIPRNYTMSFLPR

T4: Cytochrome P450 2B6 (Homo sapiens, UniProt P20813)
T4 sequence (P20813 whole entry): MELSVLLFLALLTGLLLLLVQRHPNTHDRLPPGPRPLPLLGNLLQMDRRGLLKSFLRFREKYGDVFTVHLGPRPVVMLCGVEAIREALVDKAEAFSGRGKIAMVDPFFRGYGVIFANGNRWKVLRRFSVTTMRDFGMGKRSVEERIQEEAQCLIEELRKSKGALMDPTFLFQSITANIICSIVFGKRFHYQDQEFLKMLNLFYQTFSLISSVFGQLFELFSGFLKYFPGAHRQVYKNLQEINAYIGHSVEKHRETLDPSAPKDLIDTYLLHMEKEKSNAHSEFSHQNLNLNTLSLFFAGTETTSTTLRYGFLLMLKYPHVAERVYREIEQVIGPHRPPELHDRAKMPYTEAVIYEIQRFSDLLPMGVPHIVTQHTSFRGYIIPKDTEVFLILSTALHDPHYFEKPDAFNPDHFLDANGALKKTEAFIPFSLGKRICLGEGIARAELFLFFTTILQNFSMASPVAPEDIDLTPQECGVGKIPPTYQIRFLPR

B1: Cytochrome P450 2C9 (Homo sapiens) (protein)
chain: MDSLVVLVLCLSCLLLLSLWRQSSGRGKLPPGPTPLPVIGNILQIGIKDISKSLTNLSKVYGPVFTLYFGLKPIVVLHGYEAVKEALIDLGEEFSGRGIFPLAERANRGFGIVFSNGKKWKEIRRFSLMTLRNFGMGKRSIEDRVQEEARCLVEELRKTKASPCDPTFILGCAPCNVICSIIFHKRFDYKDQQFLNLMEKLNENIKILSSPWIQICNNFSPIIDYFPGTHNKLLKNVAFMKSYILEKVKEHQESMDMNNPQDFIDCFLMKMEKEKHNQPSEFTIESLENTAVDLFGAGTETTSTTLRYALLLLLKHPEVTAKVQEEIERVIGRNRSPCMQDRSHMPYTDAVVHEVQRYIDLLPTSLPHAVTCDIKFRNYLIPKGTTILISLTSVLHDNKEFPNPEMFDPHHFLDEGGNFKKSKYFMPFSAGKRICVGEALAGMELFLFLTSILQNFNLKSLVDPKNLDTTPVVNGFASVPPFYQLCFIPV

What was measured:
[1] = test system: Liver microsome; assay: Drug level in human liver microsomes treated with montelukast at 0.02 to 0.4 uM preincubated for 3 mins followed by beta-NADPH addition by LC-MS analysis; type: ADME
[2] = molecular target: T1, Cytochrome P450 2C8; assay: Activity of recombinant human CYP2C8 expressed in microsomes isolated from baculovirus infected insect cell assessed as enzyme-mediated compound formation treated with montelukast at 0.02 to 1 uM after 60 mins by LC-MS analysis; type: ADME; settings: 1 h
[3] = molecular target: T5, Cytochrome P450 3A4 (Homo sapiens, UniProt P08684); assay: Activity of recombinant human CYP3A4 expressed in microsomes isolated from baculovirus infected insect cell assessed as enzyme-mediated compound formation treated with montelukast at 1 uM after 60 mins by LC-MS analysis; type: ADME; settings: 1 h
T5 sequence (P08684 whole entry): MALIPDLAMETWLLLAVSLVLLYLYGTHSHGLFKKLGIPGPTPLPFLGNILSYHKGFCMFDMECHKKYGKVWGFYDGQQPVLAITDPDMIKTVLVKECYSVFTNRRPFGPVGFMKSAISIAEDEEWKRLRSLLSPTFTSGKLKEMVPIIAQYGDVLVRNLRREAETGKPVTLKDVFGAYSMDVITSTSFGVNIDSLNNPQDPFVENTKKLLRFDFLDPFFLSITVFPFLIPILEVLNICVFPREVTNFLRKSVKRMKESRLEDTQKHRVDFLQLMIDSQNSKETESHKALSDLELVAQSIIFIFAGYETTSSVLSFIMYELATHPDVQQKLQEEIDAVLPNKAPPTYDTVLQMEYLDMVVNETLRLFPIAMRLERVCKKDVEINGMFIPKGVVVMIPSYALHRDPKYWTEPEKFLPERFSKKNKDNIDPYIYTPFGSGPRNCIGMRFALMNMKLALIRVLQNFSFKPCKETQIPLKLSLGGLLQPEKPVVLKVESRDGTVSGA

[4] = molecular target: T6, Cytochrome P450 2C9 (Homo sapiens, UniProt P11712); assay: Activity of recombinant human CYP2C9 expressed in microsomes isolated from baculovirus infected insect cell assessed as enzyme-mediated compound formation treated with montelukast at 1 uM after 60 mins by LC-MS analysis; type: ADME; settings: 1 h
[5] = molecular target: T7, Cytochrome P450 3A5 (Homo sapiens, UniProt P20815); assay: Activity of recombinant human CYP3A5 expressed in microsomes isolated from baculovirus infected insect cell assessed as enzyme-mediated compound formation treated with montelukast at 1 uM after 60 mins by LC-MS analysis; type: ADME; settings: 1 h
T7 sequence (P20815 whole entry): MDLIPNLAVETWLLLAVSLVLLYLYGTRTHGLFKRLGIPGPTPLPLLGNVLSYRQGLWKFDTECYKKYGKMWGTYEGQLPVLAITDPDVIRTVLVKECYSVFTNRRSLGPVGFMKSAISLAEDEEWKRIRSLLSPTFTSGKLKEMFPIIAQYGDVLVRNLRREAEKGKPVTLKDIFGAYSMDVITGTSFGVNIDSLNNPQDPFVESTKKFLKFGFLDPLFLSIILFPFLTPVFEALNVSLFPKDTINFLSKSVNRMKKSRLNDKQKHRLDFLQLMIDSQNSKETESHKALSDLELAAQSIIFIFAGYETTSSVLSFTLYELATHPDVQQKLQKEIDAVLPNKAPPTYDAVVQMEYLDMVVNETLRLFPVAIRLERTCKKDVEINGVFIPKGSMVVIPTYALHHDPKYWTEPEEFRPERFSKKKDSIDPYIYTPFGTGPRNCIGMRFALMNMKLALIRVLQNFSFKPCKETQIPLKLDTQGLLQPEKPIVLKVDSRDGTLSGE

[6] = molecular target: T8, Cytochrome P450 2C19 (Homo sapiens, UniProt P33261); assay: Activity of recombinant human CYP2C19 expressed in microsomes isolated from baculovirus infected insect cell assessed as enzyme-mediated compound formation treated with montelukast at 1 uM after 60 mins by LC-MS analysis; type: ADME; settings: 1 h
T8 sequence (P33261 whole entry): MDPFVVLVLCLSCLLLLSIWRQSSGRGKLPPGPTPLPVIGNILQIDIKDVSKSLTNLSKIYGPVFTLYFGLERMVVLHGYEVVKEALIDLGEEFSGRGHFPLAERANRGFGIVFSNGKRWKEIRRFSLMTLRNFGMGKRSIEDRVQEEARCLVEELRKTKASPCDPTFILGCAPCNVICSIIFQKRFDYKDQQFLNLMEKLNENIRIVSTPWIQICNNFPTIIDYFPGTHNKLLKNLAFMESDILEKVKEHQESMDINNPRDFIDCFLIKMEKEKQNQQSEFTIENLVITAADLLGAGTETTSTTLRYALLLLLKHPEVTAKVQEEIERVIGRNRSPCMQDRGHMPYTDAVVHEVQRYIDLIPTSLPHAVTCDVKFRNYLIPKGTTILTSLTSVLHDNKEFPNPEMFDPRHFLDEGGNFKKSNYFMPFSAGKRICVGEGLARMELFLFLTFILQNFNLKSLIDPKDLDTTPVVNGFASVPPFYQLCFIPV

[7] = molecular target: T1, Cytochrome P450 2C8; assay: Activity of recombinant human CYP2C8 expressed in microsomes isolated from baculovirus infected insect cell assessed as enzyme-mediated compound formation treated with montelukast at 0.02 to 0.1 uM after 3 mins by LC-MS analysis; type: ADME; settings: 0.05 h
[8] = molecular target: T1, Cytochrome P450 2C8; assay: Activity of recombinant human CYP2C8 expressed in microsomes isolated from baculovirus infected insect cell assessed as enzyme-mediated compound formation treated with 2-(1-(((1R)-1-(3-(2-(7-chloroquinolin-2-yl)vinyl)phenyl)-3-(2-(1,2-dihydroxypropan-2-yl)phenyl)propylthio)methyl)cyclopropyl)acetic acid at 0.02 uM after 30 mins by LC-MS analysis; type: ADME; settings: 0.5 h
[9] = molecular target: T6, Cytochrome P450 2C9; assay: Activity of recombinant human CYP2C9 expressed in microsomes isolated from baculovirus infected insect cell assessed as enzyme-mediated compound formation treated with montelukast at 0.02 to 0.1 uM after 12 mins by LC-MS analysis; type: ADME; settings: 0.2 h
[10] = molecular target: T1, Cytochrome P450 2C8; assay: (§1) Activity of recombinant human CYP2C8 expressed in microsomes isolated from baculovirus infected insect cell assessed as enzyme-mediated 2-(2-((R)-3-((1-(carboxymethyl)cyclopropyl)methylthio)-3-(3-(2-(7-chloroquinolin-2-yl)vinyl)phenyl)propyl)phenyl)-2-hydroxypropanoic acid formation at 0.02 uM after 30 mins by LC-MS analysis; type: ADME; settings: 0.5 h
[11] = molecular target: T6, Cytochrome P450 2C9; assay: as §1, with “CYP2C9” for “CYP2C8”; type: ADME; settings: 0.5 h
[12] = molecular target: T5, Cytochrome P450 3A4; assay: as §1, with “CYP3A4” for “CYP2C8”; type: ADME; settings: 0.5 h
[13] = molecular target: T2, Cytochrome P450 1A2; assay: as §1, with “CYP1A2” for “CYP2C8”, “1” for “0.02”; type: ADME; settings: 0.5 h
[14] = molecular target: T3, Cytochrome P450 2A6; assay: as §1, with “CYP2A6” for “CYP2C8”, “1” for “0.02”; type: ADME; settings: 0.5 h
[15] = molecular target: T4, Cytochrome P450 2B6; assay: as §1, with “CYP2B6” for “CYP2C8”, “1” for “0.02”; type: ADME; settings: 0.5 h
[16] = molecular target: T8, Cytochrome P450 2C19; assay: as §1, with “CYP2C19” for “CYP2C8”, “1” for “0.02”; type: ADME; settings: 0.5 h
[17] = molecular target: Cytochrome P450 2D6 (Homo sapiens, UniProt P10635); assay: as §1, with “CYP2D6” for “CYP2C8”, “1” for “0.02”; type: ADME; settings: 0.5 h
Chain of Cytochrome P450 2D6 (P10635 whole entry): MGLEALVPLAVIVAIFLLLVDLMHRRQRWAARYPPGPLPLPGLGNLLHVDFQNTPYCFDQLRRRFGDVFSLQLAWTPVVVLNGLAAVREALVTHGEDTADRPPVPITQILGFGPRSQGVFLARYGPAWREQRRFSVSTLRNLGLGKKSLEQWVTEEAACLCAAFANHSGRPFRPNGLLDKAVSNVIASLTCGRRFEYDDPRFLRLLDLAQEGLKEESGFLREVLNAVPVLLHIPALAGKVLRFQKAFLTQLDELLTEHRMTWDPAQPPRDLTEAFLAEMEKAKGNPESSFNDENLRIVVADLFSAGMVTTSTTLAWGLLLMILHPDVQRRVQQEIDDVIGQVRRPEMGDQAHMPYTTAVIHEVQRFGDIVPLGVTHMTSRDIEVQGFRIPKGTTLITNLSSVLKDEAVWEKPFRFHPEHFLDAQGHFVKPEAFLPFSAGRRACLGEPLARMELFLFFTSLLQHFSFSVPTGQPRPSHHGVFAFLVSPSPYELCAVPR

[18] = molecular target: Cytochrome P450 2E1 (Homo sapiens, UniProt P05181); assay: as §1, with “CYP2E1” for “CYP2C8”, “1” for “0.02”; type: ADME; settings: 0.5 h
Chain of Cytochrome P450 2E1 (P05181 whole entry): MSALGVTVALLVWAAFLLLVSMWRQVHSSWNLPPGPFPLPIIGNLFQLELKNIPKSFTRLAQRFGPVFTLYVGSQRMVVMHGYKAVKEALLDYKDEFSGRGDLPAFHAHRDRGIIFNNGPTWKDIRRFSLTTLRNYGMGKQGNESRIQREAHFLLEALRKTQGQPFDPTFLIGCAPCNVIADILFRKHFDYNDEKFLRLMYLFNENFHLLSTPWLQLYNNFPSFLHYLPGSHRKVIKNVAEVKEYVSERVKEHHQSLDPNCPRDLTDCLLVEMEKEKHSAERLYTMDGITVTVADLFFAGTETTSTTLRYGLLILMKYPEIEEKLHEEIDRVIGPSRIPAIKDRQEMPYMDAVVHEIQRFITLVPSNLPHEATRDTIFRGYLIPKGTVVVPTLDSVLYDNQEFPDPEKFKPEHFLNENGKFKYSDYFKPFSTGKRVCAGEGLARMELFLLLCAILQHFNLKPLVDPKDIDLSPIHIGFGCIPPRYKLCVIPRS

[19] = molecular target: T7, Cytochrome P450 3A5; assay: as §1, with “CYP3A5” for “CYP2C8”, “1” for “0.02”; type: ADME; settings: 0.5 h
[20] = substrate: CC(C)(O)c1ccccc1CC[C@@H](SCC1(CC(=O)O)CC1)c1cccc(/C=C/c2ccc3ccc(Cl)cc3n2)c1; assay: cells, lysate or membranes named

Molecule | Drug metabolism [1] | Drug metabolism [2] | Drug metabolism [3] | Drug metabolism [4] | Drug metabolism [5] | Drug metabolism [7] | further results
CC(C)(O)c1ccccc1CC[C@H](c1cccc(/C=C/c2ccc3ccc(Cl)cc3n2)c1)[S+]([O-])CC1(CC(=O)O)CC1 (stereo not given in full) | metabolite_detected | – | – | – | – | – | –
CC(C)(O)c1cc(O)ccc1CC[C@@H](SCC1(CC(=O)O)CC1)c1cccc(/C=C/c2ccc3ccc(Cl)cc3n2)c1 | metabolite_detected | metabolite_detected | metabolite_detected | metabolite_detected | metabolite_detected | metabolite_detected | Drug metabolism [6]: metabolite_detected
CC(O)(C(=O)O)c1ccccc1CC[C@@H](SCC1(CC(=O)O)CC1)c1cccc(/C=C/c2ccc3ccc(Cl)cc3n2)c1 (stereo not given in full) | metabolite_detected | – | – | – | – | – | Drug metabolism [8]: metabolite_detected
CC(C)(O)c1ccccc1C(O)C[C@@H](SCC1(CC(=O)O)CC1)c1cccc(/C=C/c2ccc3ccc(Cl)cc3n2)c1 (stereo not given in full) | metabolite_detected | – | metabolite_detected | – | metabolite_detected | – | –
CC(O)(CO)c1ccccc1CC[C@@H](SCC1(CC(=O)O)CC1)c1cccc(/C=C/c2ccc3ccc(Cl)cc3n2)c1 (stereo not given in full) | metabolite_detected | metabolite_detected | – | metabolite_detected | – | metabolite_detected | Drug metabolism [9]: metabolite_detected; Drug metabolism [10]: metabolite_detected; Drug metabolism [11]: metabolite_not_detected; Drug metabolism [12]: metabolite_not_detected; Drug metabolism [13]: metabolite_not_detected; Drug metabolism [14]: metabolite_not_detected; Drug metabolism [15]: metabolite_not_detected; Drug metabolism [16]: metabolite_not_detected; Drug metabolism [17]: metabolite_not_detected; Drug metabolism [18]: metabolite_not_detected; Drug metabolism [19]: metabolite_not_detected
B1 | – | – | – | – | – | – | Km [20]: 0.19 µM; Vmax [20]: 1.1e-07 µmol/min
